PubChem BioAssay (NCI)
Where “and” joins values, the source holds several entries; their conditions need not be identical. Equal values may be shown once.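 48-hour exposure; five concentrations; linearly interpolated endpoints. GI50 marks 50% less growth. TGI: total growth inhibition.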

Assays:
Assay in all cases: DTP human tumour cell line panel, 48 h
MDA-N = tested on: MDA-N
DMS 273 small cell lung = tested on: DMS 273 small cell lung
XF 498 CNS = tested on: XF 498 CNS
DMS 114 small cell lung = tested on: DMS 114 small cell lung
LXFL 529 NSCLC = tested on: LXFL 529 NSCLC
RXF-631 renal = tested on: RXF-631 renal
HOP-18 NSCLC = tested on: HOP-18 NSCLC
DLD-1 colon = tested on: DLD-1 colon
SNB-78 CNS = tested on: SNB-78 CNS

Row | SMILES | TGI (MDA-N) | TGI (DMS 273 small cell lung) | TGI (XF 498 CNS) | TGI (DMS 114 small cell lung) | TGI (LXFL 529 NSCLC) | TGI (RXF-631 renal) | TGI (HOP-18 NSCLC) | TGI (DLD-1 colon) | TGI (SNB-78 CNS) | further results
1 | CC1OC(OC2C(OC3CCC4(C)C(CCC5(C)C4CC=C4C6CC(C)(C)CCC6(C(=O)O)CCC45C)C3(C)CO)OCC(O)C2O)C(O)C(O)C1O (configuration not stated) | 39.9 µM |  |  |  |  |  |  |  |  | 
2 | COc1ccc(C2C(C)C(=O)C(C)C(c3ccc(OC)cc3)N2N=O)cc1 (configuration not stated) | 381 µM | 750 µM and > 1000 µM | 69.7 µM and 160 µM and > 460 µM | > 1000 µM | > 1000 µM | 750 µM and 281 µM | > 1000 µM | > 1000 µM | > 78.2 µM and 750 µM and > 902 µM | GI50 (DMS 273 small cell lung): 609 µM; GI50 (XF 498 CNS): 27 µM and 39.1 µM; GI50 (DMS 114 small cell lung): > 1000 µM; GI50 (LXFL 529 NSCLC): > 1000 µM; GI50 (RXF-631 renal): 270 µM; GI50 (HOP-18 NSCLC): > 1000 µM; GI50 (DLD-1 colon): > 750 µM; GI50 (SNB-78 CNS): > 46.2 µM and 96.1 µM
3 | CC(C)(C)c1c2c(c(C(C)(C)C)c3c1OCN(Cc1ccccc1)C3)OCN(Cc1ccccc1)C2 | 30.3 µM |  |  |  |  |  |  |  |  | 
4 | CCNC(=O)O/N=C1\CCC2[C@@H]3CC=C4C[C@@H](OC5CCCCO5)CC[C@]4(C)C3CC[C@]12C (some centres not stated) |  |  |  |  | 2.43 µM | 22.4 µM | 4.28 µM | > 100 µM | 6.42 µM | 
5 | CC(=O)[CH-]C(=O)c1ccccc1.CC(=O)[CH-]C(=O)c1ccccc1.C[C@]12CCC(=O)C=C1CC[C@@H]1C2CC[C@@]2(C)C1CC[C@@H]2[O-].C[C@]12CCC(=O)C=C1CC[C@@H]1C2CC[C@@]2(C)C1CC[C@@H]2[O-].Cl.[Ti+4] (some centres not stated) |  | 69.5 µM |  |  | 87.3 µM |  | 91.4 µM | 45.9 µM |  | GI50 (DMS 273 small cell lung): 21.2 µM; GI50 (LXFL 529 NSCLC): 24.3 µM; GI50 (HOP-18 NSCLC): 28.6 µM; GI50 (DLD-1 colon): 18.3 µM
6 | Cc1ccc2c(c1)S(=O)(=O)c1ccc3ccccc3c1N2 | > 100 µM |  |  |  |  |  |  |  |  | 
7 | Cc1ccc(S(=O)OCC23CC4CC(CC(C4)C2)C3)cc1 (configuration not stated) |  | > 100 µM | > 100 µM |  | > 100 µM |  | > 100 µM | > 100 µM | > 100 µM | 
8 | COc1ccc2nc3cc(Cl)ccc3c(Sc3ccc([N+](=O)[O-])cc3)c2c1 |  | > 100 µM | > 100 µM | > 100 µM | > 100 µM | > 100 µM | > 100 µM | > 100 µM | > 10 µM | GI50 (DMS 273 small cell lung): > 100 µM; GI50 (XF 498 CNS): > 100 µM; GI50 (DMS 114 small cell lung): > 100 µM; GI50 (LXFL 529 NSCLC): > 100 µM; GI50 (RXF-631 renal): > 100 µM; GI50 (HOP-18 NSCLC): > 100 µM; GI50 (DLD-1 colon): > 100 µM
9 | CC(=O)NC1C(OCc2ccccc2)OC(COC(=O)CCCCCCCCCCNc2ccc([N+](=O)[O-])c3[nH]c4ccccc4c(=O)c23)C(O)C1OC(C)C(=O)NC(C)C(=O)NC(CCC(N)=O)C(=O)OCc1ccccc1 (configuration not stated) |  | > 100 µM | > 100 µM | > 100 µM | > 100 µM |  | > 100 µM | > 100 µM | > 100 µM | 
10 | O=c1ssc(Cl)c1Cl | > 10 µM |  |  |  |  |  |  |  |  | 
11 | CC(=O)OC12COC1CC(O)C1(C)C(=O)C(O)C3=C(C)C(O)CC(O)(C(OC(=O)c4ccccc4)C21)C3(C)C (configuration not stated) |  | 17.6 µM | > 100 µM |  |  |  |  |  | > 100 µM | 
12 | CS(=O)(=O)CC(=O)c1ccccc1 | > 100 µM |  |  |  |  |  |  |  |  | 
13 | O=C(COC(=O)c1cccc2c(=O)c3ccccc3[nH]c12)Nc1ccc(C(=O)O)cc1 |  |  | 95.6 µM | > 100 µM |  | > 100 µM | > 100 µM | > 100 µM | > 100 µM | 
14 | NCC1OC(OC2C(CO)OC(OC3C(O)C(N)CC(N)C3OC3OC(CO)C(O)CC3N)C2O)C(N)C(O)C1OC1OC(CO)C(O)C(O)C1O (configuration not stated) | > 50 µg/mL |  |  |  |  |  |  |  |  | GI50 (MDA-N): > 50 µg/mL
15 | O=C(O)c1ccc(C(=O)O)c(C(=O)Nc2ccc3c(c2)C(=O)c2ccccc2-3)c1 | > 100 µM |  |  |  |  |  |  |  |  | 
16 | OCc1c[te]c(-c2ccccc2)c1 |  | > 100 µM |  | 91.7 µM | > 100 µM | > 100 µM |  | > 100 µM | > 100 µM | 
17 | NN1C(=O)C(CCO)S/C1=N/N=C1/SC(CCO)C(=O)N1N (configuration not stated) |  |  | > 100 µM | > 100 µM | > 100 µM |  | > 100 µM | > 100 µM | > 100 µM | 
18 | COC(=O)C(Cc1nc2ccccc2nc1C)/C(=N\NC(N)=O)C(=O)Nc1cccc([N+](=O)[O-])c1 (configuration not stated) |  |  | > 100 µM | > 100 µM | > 100 µM | > 100 µM | > 100 µM | > 100 µM | > 100 µM | 
19 | Cc1ccccc1-n1c2nc(=O)n(C)c(=O)c-2nc2ccccc21 |  | 26.7 µM | 31.3 µM | 18.3 µM | 26.3 µM | 36.3 µM | 24.2 µM | 42.4 µM | 43.1 µM | 

Row | SMILES | TGI (MDA-N) | TGI (DMS 273 small cell lung) | TGI (XF 498 CNS) | TGI (DMS 114 small cell lung) | TGI (LXFL 529 NSCLC) | TGI (RXF-631 renal) | TGI (HOP-18 NSCLC) | TGI (DLD-1 colon) | TGI (SNB-78 CNS) | further results
20 | NCCNCc1c2ccccc2c(CNCCN)c2ccccc12 |  |  |  | 33.1 µM | 22.1 µM | > 100 µM | 90.1 µM | > 100 µM | 82.1 µM | 
21 | CC1=CC(N2C(=O)C(C)=CC2O)NC1=O (configuration not stated) |  |  |  |  | > 100 µM |  |  | > 100 µM | > 100 µM | 
22 | COc1cc2c(cc1OC)C1Cc3cc(OC)c(OC)cc3C(C2)N1C | > 75 µM |  | > 100 µM |  | > 100 µM |  |  | > 100 µM | > 100 µM | 
23 | CC(C)NC(=O)CCN(C(=O)O)S(=O)(=O)c1ccc(NC(=O)c2ccccc2)cc1 |  | > 56.7 µM | > 100 µM | > 54.3 µM | > 100 µM | > 100 µM | > 100 µM | > 72.6 µM | > 100 µM | 
24 | C=C(C(=C)P(=S)(c1ccccc1)c1ccccc1)P(=S)(c1ccccc1)c1ccccc1 |  | > 100 µM | > 100 µM | > 100 µM | > 100 µM |  | > 100 µM |  | > 100 µM | 
25 | CC(C)(C)CC(N)=O | > 100 µM |  |  |  |  |  |  |  |  | 
26 | OCCN1CCN2C=C(C3CCCC4N(CCO)CCN34)CCC21 (configuration not stated) |  | > 100 µM | > 100 µM | 72.5 µM | > 100 µM |  | > 100 µM | > 100 µM | > 100 µM | 
27 | CN(Cc1cc(Cl)cc(Cl)c1O)Cc1c(O)ccc2ccccc12 | 66.1 µM |  |  |  |  |  |  |  |  | 
28 | CN1CCN(C)C12C=CC=CC21CC1 |  | > 100 µM | > 100 µM | > 100 µM |  | > 100 µM | > 100 µM | > 100 µM | > 100 µM | 
29 | COC(=O)C1=C(C(=O)OC)C2(C)Nc3ccccc3C2=C(c2ccccc2)C1 (configuration not stated) |  | 43.7 µM | 27 µM | 44.4 µM | 32.1 µM |  |  | > 100 µM | 46.9 µM | 
30 | CC(=O)Nc1ccc(COC(O)CN2CCCCC2)cc1[N+](=O)[O-] (configuration not stated) | > 100 µM |  |  |  |  |  |  |  |  | 
31 | N/N=c1\c2ccccc2c2cc3c(cc12)/c(=N/N)c1ccccc13 |  | > 100 µM |  | > 100 µM | > 100 µM | > 100 µM | > 100 µM | > 100 µM | > 100 µM | 
32 | Clc1ccc(-c2c(C3=NCCCN3)nnn2-c2ccccc2)cc1 |  | > 100 µM | > 100 µM | > 100 µM | > 100 µM | > 100 µM | > 100 µM | > 100 µM | > 100 µM | 
33 | O=C(/C(=C\c1ccc(Cl)cc1)c1ccccc1)c1ccccc1 |  |  | 95.5 µM | > 100 µM | > 100 µM |  | > 100 µM | > 100 µM | > 100 µM | 
34 | CC1(c2ccccc2)CC(c2cccc([N+](=O)[O-])c2)=NO1 (configuration not stated) |  | > 100 µM |  | > 100 µM | > 100 µM | > 100 µM | > 100 µM | > 100 µM | > 100 µM | 
35 | CC#CC1C2CCCC1(CSc1ccccc1)NC(=O)O2 (configuration not stated) |  | > 100 µM | > 100 µM | > 100 µM | > 100 µM | > 100 µM | > 100 µM | > 100 µM | > 100 µM | 
36 | Cc1cc(C(C)(C)C)cc(CNC2CCCCC2)c1O | 29.9 µM |  |  |  |  |  |  |  |  | 
37 | Cc1c(O)c2c(c(O)c1Br)C(=O)C=CC2=O | 0.615 µM and 2.08 µM |  |  |  |  |  |  |  |  | GI50 (MDA-N): 0.63 µM
